Results on 27 molecules are retold here after ChEMBL document CHEMBL4196036, “Benzomorphan scaffold for opioid analgesics and pharmacological tools development: A comprehensive review” (Eur J Med Chem, 2018).

Test [1] has as its target T1, Kappa-type opioid receptor (Homo sapiens, UniProt P41145). Briefly: Binding affinity to KOR (unknown origin).
The target in test [2] is T2, Mu-type opioid receptor (Homo sapiens, UniProt P35372). Description: Binding affinity to MOR (unknown origin).
Test [3] deals with T3, Mu-type opioid receptor (Cavia porcellus, UniProt P97266). Description: Displacement of [3H]DAMGO from MOR in guinea pig brain membranes. Type of test: cell membranes, Membrane. On the technique in general: In a radioligand displacement assay an active substance lowers the binding of a labelled ligand.
T3 sequence (P97266 whole entry): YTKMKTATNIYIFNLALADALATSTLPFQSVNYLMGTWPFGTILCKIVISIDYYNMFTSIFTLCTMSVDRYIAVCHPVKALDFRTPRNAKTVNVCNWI
The target in test [4] is T4, G_PROTEIN_RECEP_F1_2 domain-containing protein (Cavia porcellus, UniProt A0A286XTF2). Briefly: Displacement of [3H]Naltrindole from DOR in guinea pig brain membranes. Type of test: cell membranes, Membrane.
T4 sequence (A0A286XTF2 whole entry): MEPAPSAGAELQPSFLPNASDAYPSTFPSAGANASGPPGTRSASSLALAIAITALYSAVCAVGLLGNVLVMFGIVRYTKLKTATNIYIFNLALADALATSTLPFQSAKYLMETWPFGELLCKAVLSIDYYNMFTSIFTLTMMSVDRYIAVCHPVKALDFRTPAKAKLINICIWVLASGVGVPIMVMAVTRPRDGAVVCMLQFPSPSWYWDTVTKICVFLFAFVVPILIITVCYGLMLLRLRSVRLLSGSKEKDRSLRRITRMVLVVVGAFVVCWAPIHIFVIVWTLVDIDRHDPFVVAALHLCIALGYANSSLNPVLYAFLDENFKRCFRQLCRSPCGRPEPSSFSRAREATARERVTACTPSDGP
Test [5] has as its target T5, Kappa-type opioid receptor (Cavia porcellus, UniProt P41144). Briefly: Displacement of [3H]U69,593 from KOR in guinea pig brain membranes. Type of test: cell membranes, Membrane.
The species entered for test [6] is Homo sapiens. Briefly: Selectivity ratio of Ki for MOR (unknown origin) to Ki for KOR (unknown origin).
Test [7] is filed under the species Homo sapiens. Briefly: Selectivity ratio of Ki for DOR (unknown origin) to Ki for KOR (unknown origin).
Test [8] relates to Mus musculus. Briefly: Antinociceptive activity in sc dosed mouse by abdominal constriction assay. Type of test: functional.
The target of test [9] is T4, G_PROTEIN_RECEP_F1_2 domain-containing protein. Briefly: Displacement of [3H]Naltrindole from DOR in guinea pig brain membranes after 3 hrs by scintillation counting method. Type of test: cell membranes, Membrane.
Test [10] concerns the target Kappa-type opioid receptor (Macaca mulatta, UniProt H9FL65). Description: Displacement of [3H]U69,593 from KOR in monkey brain cortex membranes. Type of test: cell membranes.
For test [11], the target named is Mu-type opioid receptor (Macaca mulatta, UniProt Q9MYW9). Description: Displacement of [3H]DAMGO from MOR in monkey brain cortex membranes. Type of test: cell membranes.
Mu-type opioid receptor (Macaca mulatta, UniProt Q9MYW9), sequence (Q9MYW9 whole entry): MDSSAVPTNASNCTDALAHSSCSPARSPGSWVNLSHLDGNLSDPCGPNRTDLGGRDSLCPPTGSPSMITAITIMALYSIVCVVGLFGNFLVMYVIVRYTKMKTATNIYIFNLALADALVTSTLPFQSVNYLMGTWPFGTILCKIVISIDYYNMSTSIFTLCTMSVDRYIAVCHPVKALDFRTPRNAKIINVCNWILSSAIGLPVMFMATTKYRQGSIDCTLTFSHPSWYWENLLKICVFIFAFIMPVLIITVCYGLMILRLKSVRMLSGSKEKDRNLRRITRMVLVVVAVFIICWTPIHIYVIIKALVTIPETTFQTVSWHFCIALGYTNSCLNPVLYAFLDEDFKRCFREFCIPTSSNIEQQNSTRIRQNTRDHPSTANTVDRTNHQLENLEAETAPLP
In test [12] the target is G_PROTEIN_RECEP_F1_2 domain-containing protein (Macaca mulatta, UniProt F7HEV7). Briefly: Displacement of [3H]naltrindole from DOR in monkey brain cortex membranes. It counts as cell membranes.
G_PROTEIN_RECEP_F1_2 domain-containing protein (Macaca mulatta, UniProt F7HEV7), sequence (F7HEV7 whole entry): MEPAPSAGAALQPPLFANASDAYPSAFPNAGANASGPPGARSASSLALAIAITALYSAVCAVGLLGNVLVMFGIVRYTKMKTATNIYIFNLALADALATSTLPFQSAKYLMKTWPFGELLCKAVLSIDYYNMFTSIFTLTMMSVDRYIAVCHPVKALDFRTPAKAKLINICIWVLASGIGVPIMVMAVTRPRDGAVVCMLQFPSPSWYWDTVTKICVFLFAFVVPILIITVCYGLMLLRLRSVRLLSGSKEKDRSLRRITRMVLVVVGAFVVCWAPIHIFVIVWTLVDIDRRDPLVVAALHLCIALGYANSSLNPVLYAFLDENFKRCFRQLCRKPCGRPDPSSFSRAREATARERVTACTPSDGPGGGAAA
The subject of test [13] is Mus musculus. Briefly: Antinociceptive activity in sc dosed ICR mouse after 20 mins by tail flick test. It counts as functional. (In hot-plate and tail-flick tests a longer latency is read as antinociception.)
Test [14] concerns Mus musculus. Description: Analgesic activity in sc dosed ICR mouse after 30 mins by hot plate test. It counts as functional. The conditions noted are these: 0.5 h.
For test [15], the species on record is Mus musculus. Briefly: Antinociceptive activity in mouse by paraphenylquinone assay. It counts as functional.
Test [16] addresses T3, Mu-type opioid receptor. Briefly: Displacement of [3H]DAMGO from MOR in guinea pig brain membranes after 60 mins by scintillation counting method. Type of test: cell membranes, Membrane.
The target in test [17] is T5, Kappa-type opioid receptor. Description: Displacement of [3H]U69,593 from KOR in guinea pig brain membranes after 60 mins by scintillation counting method. It counts as cell membranes, Membrane.
Test [18] deals with T2, Mu-type opioid receptor. Description: Displacement of [3H]DAMGO from MOR (unknown origin) expressed in CHO cell membranes.
Test [19] deals with T6, Delta-type opioid receptor (Homo sapiens, UniProt P41143). Description: Displacement of [3H]naltrindole from DOR (unknown origin) expressed in CHO cell membranes.
T6 sequence (P41143 whole entry): as the sequence (F7HEV7 whole entry) above, with A10E, F27C, N29S, K112E, I179V counted along it
Test [20] concerns the target T1, Kappa-type opioid receptor. Description: Displacement of [3H]U69,593 from KOR (unknown origin) expressed in CHO cell membranes.
The target of test [21] is T6, Delta-type opioid receptor. Briefly: Binding affinity to DOR (unknown origin).
The test system of test [22] is Mus musculus. Briefly: Antinociceptive activity in sc dosed mouse assessed as inhibition of PPQ-induced stretching response pretreated for 10 mins followed by PPQ treatment measured for 1 min at 10 to 15 mins post PPQ treatment. Type of test: functional.
Test [23] concerns the target T2, Mu-type opioid receptor. Description: Displacement of [3H]-diprenorphine from MOR (unknown origin) after 1 to 2 hrs by scintillation counting method.
In test [24] the target is T1, Kappa-type opioid receptor. Description: Displacement of [3H]U69,593 from human KOR expressed in HEK293 cell membranes after 1 hr by scintillation counting method.
Test [25] addresses T1, Kappa-type opioid receptor. Description: Agonist activity at human KOR expressed in HEK293 cell membranes assessed as stimulation of [35S]GTPgammaS binding after 30 mins by scintillation counting method relative to control. Type of test: functional. A general note: Binding of GTPγS marks nucleotide exchange on a G protein.
Test [26] concerns the target T1, Kappa-type opioid receptor. Description: Agonist activity at human KOR expressed in HEK293 cell membranes assessed as stimulation of [35S]GTPgammaS binding after 30 mins by scintillation counting method. It counts as functional.

Where only a bound is given, the exact number is not on record here.

T2 sequence (P35372 whole entry): as the sequence (Q9MYW9 whole entry) above, with V6A, H19Y, R26P, V119A, S154F, S227T, I293V, D344N counted along it
Kappa-type opioid receptor (Macaca mulatta, UniProt H9FL65), sequence (H9FL65 whole entry): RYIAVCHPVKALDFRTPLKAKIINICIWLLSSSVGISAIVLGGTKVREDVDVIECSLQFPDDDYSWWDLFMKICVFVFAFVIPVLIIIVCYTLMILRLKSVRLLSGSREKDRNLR
T5 sequence (P41144 whole entry): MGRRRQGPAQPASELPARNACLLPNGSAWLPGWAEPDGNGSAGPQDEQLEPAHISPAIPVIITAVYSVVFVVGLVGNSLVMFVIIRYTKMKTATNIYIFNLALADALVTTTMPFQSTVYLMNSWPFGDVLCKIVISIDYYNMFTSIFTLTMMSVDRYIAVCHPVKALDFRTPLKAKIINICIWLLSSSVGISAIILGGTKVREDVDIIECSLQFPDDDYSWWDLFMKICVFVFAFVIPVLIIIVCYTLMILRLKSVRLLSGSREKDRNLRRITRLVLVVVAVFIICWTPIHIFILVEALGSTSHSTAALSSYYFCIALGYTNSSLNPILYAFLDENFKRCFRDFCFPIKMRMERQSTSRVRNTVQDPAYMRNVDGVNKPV
T1 sequence (P41145 whole entry): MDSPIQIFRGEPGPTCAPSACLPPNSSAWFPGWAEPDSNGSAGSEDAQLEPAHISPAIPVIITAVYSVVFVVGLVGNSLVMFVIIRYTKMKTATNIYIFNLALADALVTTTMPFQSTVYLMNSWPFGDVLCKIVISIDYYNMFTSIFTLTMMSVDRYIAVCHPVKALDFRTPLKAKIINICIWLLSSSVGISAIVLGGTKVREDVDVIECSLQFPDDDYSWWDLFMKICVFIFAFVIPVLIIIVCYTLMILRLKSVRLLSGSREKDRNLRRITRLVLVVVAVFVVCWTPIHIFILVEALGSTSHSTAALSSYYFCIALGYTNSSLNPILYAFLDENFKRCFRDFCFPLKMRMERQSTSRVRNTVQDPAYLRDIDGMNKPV

As for `C[C@H]1[C@H]2Cc3ccc(O)cc3[C@@]1(C)CCN2C[C@@H]1C[C@@]1(CN1CCCCC1)c1ccccc1`, the Ki (in general, the dissociation constant of the complex between target and ligand, obtained from inhibition or displacement) stood at 179 nM in test [1] and 45 nM at Mu-type opioid receptor [2].

Consider `C[C@H]1[C@H]2Cc3ccc(NC=O)cc3[C@]1(C)CCN2CC1CC1`, for which the Ki on Mu-type opioid receptor [3] amounted to 1.1 nM; in test [4], 9.8 nM; in test [5] it was 0.49 nM.

Molecule `CCCCC(=N)NCCCCCNC(=O)[C@H](CC(C)C)NC(=O)CNC(=O)[C@@]1(c2ccccc2)C[C@H]1CN1CC[C@]2(C)c3cc(O)ccc3C[C@@H]1[C@@H]2C` registered a Ki in test [1] of 6.7 nM. For the same molecule, the Ratio Ki amounted to 375 in the test listed under Homo sapiens [6] and 408 in the test listed under Homo sapiens [7]. For the same molecule, in the test on Mus musculus [8], it took a dose of 0.88 mg/kg to reach the 50% effect level (ED50).

In turn, `CCC12CCN(CC3CC3)C(C(=O)c3ccc(NC=O)cc31)C2C` (racemic) showed a Ki on Mu-type opioid receptor [3] of 6.1 nM.

Take `C[C@H]1[C@H]2Cc3ccc(N)cc3[C@@]1(C)CCN2CC1CC1`: affinity in [9] was put at a Ki of 12 nM.

Consider `C[C@H]1[C@H]2Cc3ccc(O)cc3[C@@]1(C)CCN2CCC#N`, for which the Ki was 0.4 nM in [10], 9.8 nM at Mu-type opioid receptor [11] and 4.2 nM in test [12]. Also, the ED50 (usually the midpoint of the dose-response relation) worked out at 0.3 mg/kg in the test on Mus musculus [13], 0.1 mg/kg in the test on Mus musculus [14] and 0.05 mg/kg in the test filed under Mus musculus [15].

As for `C=CCCN1CC[C@]2(C)c3cc(O)ccc3C[C@@H]1[C@@H]2C`, the figures for the inhibitory constant (Ki) (in test [10]; at Mu-type opioid receptor [11]; in test [12]) were 1.3 nM, 2.1 nM and 21 nM, respectively. In addition, the ED50 in the test on Mus musculus [13] was determined as 0.05 mg/kg; with Mus musculus [14], 0.3 mg/kg; in the test listed under Mus musculus [15], 0.8 mg/kg.

For `C[C@H]1[C@H]2Cc3ccc(O)cc3[C@@]1(C)CCN2C[C@@H]1CCCO1`, the inhibition constant Ki in test [9] was 2.5 nM.

Molecule `CC1C2Cc3ccc(C(N)=O)cc3C1(C)CCN2CC1CC1` (racemic) gave a Ki in [9] of 8.3 nM.

In the case of `CC1C2Cc3ccc(NC=O)cc3C1(C)CCN2CC1CC1` (racemic), on Mu-type opioid receptor [3], the inhibition constant (Ki) came out at 1.9 nM.

Regarding `CC1C2Cc3ccc(Nc4cccnc4)cc3C1(C)CCN2CC1CC1` (racemic), the Ki on Mu-type opioid receptor [16] was 0.64 nM; in test [9], 21 nM; in test [17] it was 0.5 nM.

Consider `C[C@H]1[C@H]2Cc3cc4sc(N)nc4cc3[C@@]1(C)CCN2CC1CC1`, for which the Ki on Mu-type opioid receptor [18] amounted to 48 nM; in test [19], 940 nM; in test [20], 6.7 nM.

On to `C[C@H]1[C@H]2Cc3ccc(O)cc3[C@@]1(C)CCN2CCCC#N`, for which the Ki stood at 0.4 nM in test [10], 23 nM at Mu-type opioid receptor [11] and 5.8 nM in test [12]. Besides, the 50% effective dose (ED50) with Mus musculus [13] is 0.4 mg/kg; with Mus musculus [14], 1 mg/kg; in the test filed under Mus musculus [15], 0.01 mg/kg.

For `C[C@H]1[C@H]2C(=O)c3ccc(O)cc3[C@@]1(C)CCN2CC1CCCO1` (some centres undefined), the Ki in test [1] is 720 nM; on Mu-type opioid receptor [2], 2900 nM; in test [21], more than 10000 nM.

Turning to `C[C@H]1[C@H]2Cc3ccc(Nc4ccccc4)cc3[C@@]1(C)CCN2CC1CC1`, the affinity in [9], expressed as Ki, was 5.2 nM.

For `COc1ccc(Nc2ccc3c(c2)C2(C)CCN(CC4CC4)C(C3)C2C)cc1` (racemic), the values for the Ki (at Mu-type opioid receptor [16]; in [9]; in test [17]) were 0.47 nM, 8.3 nM and 0.29 nM, respectively.

In turn, `CCCCC(=N)NCCCCCCNC(=O)[C@H](CC(C)C)NC(=O)CNC(=O)[C@@]1(c2ccccc2)C[C@H]1CN1CC[C@]2(C)c3cc(O)ccc3C[C@@H]1[C@@H]2C` registered a Ki in test [1] of 5.3 nM. Besides, the Ratio Ki in the test listed under Homo sapiens [6] worked out at 408; in the test listed under Homo sapiens [7] it was 424. The ED50 in the test with Mus musculus [8] stood at 1.1 mg/kg.

`C#CCCN1CC[C@]2(C)c3cc(O)ccc3C[C@@H]1[C@@H]2C`: the values for the Ki (in [10]; on Mu-type opioid receptor [11]; in [12]) were 1.4 nM, 4.6 nM and 10 nM, respectively. Further, the ED50 was 0.05 mg/kg in the test with Mus musculus [13], 0.04 mg/kg in the test on Mus musculus [14] and 0.1 mg/kg in the test listed under Mus musculus [15].

As to `C[C@H]1[C@H]2Cc3cc4sc(N)nc4cc3[C@@]1(C)CCN2CC1CCC1`, the inhibition constant (Ki) is 8.3 nM on Mu-type opioid receptor [18], 93 nM in [19] and 0.49 nM in [20].

Regarding `C[C@H]1[C@H]2Cc3ccc(O)cc3[C@@]1(C)CCN2CCCCCCO`, the median effective dose (ED50) in the test with Mus musculus [22] is 1.9 mg/kg.

Consider `C=CC[N+]1(C)CC[C@]2(C)c3cc(O)ccc3C[C@@H]1[C@@H]2C` (some centres undefined), for which the values for the inhibitory constant (Ki) (on Mu-type opioid receptor [23]; in test [24]) were 56.4 nM and 10.3 nM, respectively. For the same molecule, the Emax (usually the size of the effect at its maximum, as opposed to the concentration needed) in test [25] was 27.3%. Further, the EC50 (usually the midpoint of the concentration-response curve) in [26] turned out to be 268 nM.

With `CCC12CCN(CC3CC3)C(C(=O)c3ccc(O)cc31)C2C` (racemic), the inhibition constant Ki came to 3.4 nM in test [9], 0.78 nM on Mu-type opioid receptor [2] and 3.4 nM in [21].

Regarding `C[C@H]1[C@H]2Cc3ccc(O)cc3[C@@]1(C)CC[N+]2(C)CC1CC1` (some centres undefined), the Ki on Mu-type opioid receptor [23] was 23 nM; in [24], 4.33 nM. Moreover, the Emax in test [25] was determined as 50%. Besides, in test [26], the EC50 worked out at 77.3 nM.

As for `C=CCN1CC[C@]2(C)c3cc(O)ccc3C[C@@H]1[C@@H]2C`, the Ki in [10] came out at 0.3 nM; at Mu-type opioid receptor [11], 0.9 nM; in test [12], 5.5 nM. This molecule also returned an ED50 in the test listed under Mus musculus [15] of 0.1 mg/kg.

For `C[C@H]1[C@H]2Cc3ccc(O)cc3[C@@]1(C)CCN2C[C@@H]1C[C@@]1(C(=O)NCc1ccccc1)c1ccccc1`, the inhibition constant (Ki) in [1] turned out to be 35 nM.

`C[C@H]1[C@H]2Cc3ccc(O)cc3[C@@]1(C)CCN2CC1CC1`: the inhibition constant (Ki) stood at 0.58 nM in [9] and 0.052 nM in test [17].

As to `CC1C2Cc3ccc(O)cc3C1(C)CCN2CC1CC1` (racemic), the Ki came out at 1.1 nM in test [9] and 0.18 nM in test [17].
